From patent US11331271B2, “Buccal, sublingual and intranasal delivery of fospropofol” (The Johns Hopkins University, priority 2016, dated 2022)
“Also recorded” adds a separate entry of the source.

Test system: healthy male volunteers
Assay: Human Study 1: treatment-emergent adverse events (TEAE), safety, Modified OAA/S
Type: in vivo
Method: In human study 1, fospropofol disodium was formulated as a sterile aqueous solution at a concentration of 20 mg/mL. Each vial provided contained 20 mL of solution, suitable for intravenous injection. Fospropofol was administered as a single dose of 400 mg orally, directly into the duodenum by gastroscopy or intravenously over 10 min. In human study 2, fospropofol disodium in capsules (200 mg) or matching placebo was administered orally.
The first study was an absolute bioavailability study of fospropofol conducted at a single center (PRA Health Sciences) in Groningen, Netherlands, as a three-way crossover study. The study enrolled 7 healthy male volunteers between 18 and 45 years of age inclusive, with a body mass index between 18 and 28 kg/m^2. Subjects stayed in the clinical unit for three consecutive periods of 3 days each, with a 3-day washout, between periods. For six subjects, the order of the administration routes was as follows—period 1: PO, period 2: ID, and period 3: IV. For one subject the order of the administration routes was the following—period 1: ID, period 2: IV and period 3: PO. In this study a single dose of 400 mg was administered by each route. Blinding and placebo control was impractical due to the requirement of unsedated endoscopic administration of fospropofol into the duodenum. Safety and overall pharmacodynamic effect was evaluated based on adverse events, vital signs, electrocardiogram (ECG), Modified Observer's Assessment of Alertness/Sedation (OAA/S) score, clinical laboratory tests, and physical examination.

## CC(C)c1cccc(C(C)C)c1OCOP(=O)(O)O [fospropofol]
400 mg PO
  TEAE NERVOUS SYSTEM DISORDERS, events (E): 6
  TEAE NERVOUS SYSTEM DISORDERS, subjects (%): 57%
  TEAE PSYCHIATRIC DISORDERS, events (E): 1
  TEAE PSYCHIATRIC DISORDERS, subjects (%): 14%
  TEAE TOTAL, events (E): 8
  TEAE TOTAL, subjects (%): 86%
  TEAE dizziness, events (E): 1
  TEAE dizziness, subjects (%): 14%
  TEAE euphoric mood, events (E): 1
  TEAE euphoric mood, subjects (%): 14%
  TEAE nausea, events (E): 1
  TEAE nausea, subjects (%): 14%
  TEAE paresthesia, events (E): 1
  TEAE paresthesia, subjects (%): 14%
  TEAE somnolence, events (E): 4
  TEAE somnolence, subjects (%): 57%
400 mg PO, one subject
  time to resolution of euphoria: 17 min
400 mg oral
  Modified OAA/S score, all subjects at all times: 5
400 mg, Total (PO+ID+IV)
  TEAE BLOOD AND LYMPHATIC SYSTEM DISORDERS, events (E): 1
  TEAE BLOOD AND LYMPHATIC SYSTEM DISORDERS, subjects (%): 14%
  TEAE EYE DISORDERS, events (E): 5
  TEAE EYE DISORDERS, subjects (%): 71%
  TEAE GASTROINTESTINAL DISORDERS, events (E): 6
  TEAE GASTROINTESTINAL DISORDERS, subjects (%): 57%
  TEAE GENERAL DISORDERS AND ADMINISTRATION SITE CONDITIONS, events (E): 12
  TEAE GENERAL DISORDERS AND ADMINISTRATION SITE CONDITIONS, subjects (%): 71%
  TEAE INFECTIONS AND INFESTATIONS, events (E): 1
  TEAE INFECTIONS AND INFESTATIONS, subjects (%): 14%
  TEAE MUSCULOSKELETAL AND CONNECTIVE TISSUE DISORDERS, events (E): 2
  TEAE MUSCULOSKELETAL AND CONNECTIVE TISSUE DISORDERS, subjects (%): 29%
  TEAE NERVOUS SYSTEM DISORDERS, events (E): 40
  TEAE NERVOUS SYSTEM DISORDERS, subjects (%): 100%
  TEAE PSYCHIATRIC DISORDERS, events (E): 3
  TEAE PSYCHIATRIC DISORDERS, subjects (%): 43%
  TEAE REPRODUCTVE SYSTEM AND BREAST DISORDERS, events (E): 1
  TEAE REPRODUCTVE SYSTEM AND BREAST DISORDERS, subjects (%): 14%
  TEAE SKIN AND SUBCUTANEOUS TISSUE DISORDERS, events (E): 2
  TEAE SKIN AND SUBCUTANEOUS TISSUE DISORDERS, subjects (%): 29%
  TEAE TOTAL, subjects (%): 100%
  TEAE burning sensation, events (E): 6
  TEAE burning sensation, subjects (%): 43%
  TEAE catheter site pain, events (E): 1
  TEAE catheter site pain, subjects (%): 14%
  TEAE diplopia, events (E): 1
  TEAE diplopia, subjects (%): 14%
  TEAE disorientation, events (E): 1
  TEAE disorientation, subjects (%): 14%
  TEAE dizziness postural, events (E): 1
  TEAE dizziness postural, subjects (%): 14%
  TEAE dizziness, events (E): 5
  TEAE dizziness, subjects (%): 43%
  TEAE dry mouth, events (E): 1
  TEAE dry mouth, subjects (%): 14%
  TEAE dyspepsia, events (E): 1
  TEAE dyspepsia, subjects (%): 14%
  TEAE ecchymosis, events (E): 1
  TEAE ecchymosis, subjects (%): 14%
  TEAE euphoric mood, events (E): 2
  TEAE euphoric mood, subjects (%): 29%
  TEAE fatigue, events (E): 4
  TEAE fatigue, subjects (%): 43%
  TEAE feeling abnormal, events (E): 1
  TEAE feeling abnormal, subjects (%): 14%
  TEAE feeling cold, events (E): 1
  TEAE feeling cold, subjects (%): 14%
  TEAE feeling drunk, events (E): 1
  TEAE feeling drunk, subjects (%): 14%
  TEAE flatulence, events (E): 1
  TEAE flatulence, subjects (%): 14%
  TEAE genital pruritis male, events (E): 1
  TEAE genital pruritis male, subjects (%): 14%
  TEAE herpes simplex, events (E): 1
  TEAE herpes simplex, subjects (%): 14%
  TEAE lymph node pain, events (E): 1
  TEAE lymph node pain, subjects (%): 14%
  TEAE muscle fatigue, events (E): 2
  TEAE muscle fatigue, subjects (%): 29%
  TEAE nausea, events (E): 2
  TEAE nausea, subjects (%): 14%
  TEAE paresthesia, events (E): 10
  TEAE paresthesia, subjects (%): 86%
  TEAE proctalgia, events (E): 1
  TEAE proctalgia, subjects (%): 14%
  TEAE rash, events (E): 1
  TEAE rash, subjects (%): 14%
  TEAE sluggishness, events (E): 3
  TEAE sluggishness, subjects (%): 43%
  TEAE somnolence, events (E): 11
  TEAE somnolence, subjects (%): 100%
  TEAE speech disorder, events (E): 6
  TEAE speech disorder, subjects (%): 86%
  TEAE subrapubic pain, events (E): 1
  TEAE subrapubic pain, subjects (%): 14%
  TEAE tremor, events (E): 1
  TEAE tremor, subjects (%): 14%
  TEAE visual disturbance, events (E): 4
  TEAE visual disturbance, subjects (%): 57%
400 mg, all routes
  TEAEs considered possibly or probably related to study drug: Seventy
  clinical laboratory results, vital signs, ECG, physical examination: No clinically-relevant abnormalities
  lowest observed Modified OAA/S score: 4
  serious adverse events: No subject experienced a serious adverse event; also recorded: No severe or serious TEAEs
  severity of TEAEs: mild
400 mg, all routes, after dosing
  time to resolution of TEAEs (all but one): ≤ 1 h
400 mg, all routes, postdose
  time by which all subjects had Modified OAA/S scores of 5: ≤ 1.5 h
